Test results from patent US20080255206A1, “Rxr Agonists and Antagonists, Alone or in Combination with Ppar Ligands, in the Treatment of Metabolic and Cardiovascular Diseases” (priority 2005, published 2008).

Key:
synovial fibroblasts = test: In vitro cartilage degradation by synovial fibroblasts (sGAG release); assay type: cell-based, human; details: for sGAG release: 14 days
Experimental: Furthermore, it is determined whether this is accompanied by a modulation in the accumulation of the mRNA encoding catabolic enzyme matrix metalloproteinase-1 (MMP-1), responsible for degradation of human cartilage and consequently joint destruction in man. Adherent synovial fluid cells taken from a patient with RA are used after 5 passages in an in vitro assay for cartilage destruction. The cells incubated in flasks coated with 0.1% (0.1 g/100 ml) human cartilage powder are fixed using Matrigel® (BD Biosciences, Becton, Dickinson & Co., Boston, Mass., USA). The release of sulphated glycosaminoglycan (sGAG) into the culture medium is monitored by a commercial colorimetric test according to a method described by S. Björnsson, see Anal. […] This is conducted in the presence or absence of IL-1β (100 pg/ml).

MMP-1 mRNA = MMP-1 mRNA in synovial fibroblasts (real time PCR); assay type: cell-based, human
Experimental: Furthermore, it is determined whether this is accompanied by a modulation in the accumulation of the mRNA encoding catabolic enzyme matrix metalloproteinase-1 (MMP-1), responsible for degradation of human cartilage and consequently joint destruction in man. Adherent synovial fluid cells taken from a patient with RA are used after 5 passages in an in vitro assay for cartilage destruction. The cells incubated in flasks coated with 0.1% (0.1 g/100 ml) human cartilage powder are fixed using Matrigel® (BD Biosciences, Becton, Dickinson & Co., Boston, Mass., USA).
This is conducted in the presence or absence of IL-1β (100 pg/ml).

db/db mice = test: Investigation with db/db mice (blood glucose and lipids); assay type: in vivo, mouse; details: for Glucose Diff. D o − D 12 / HDL-cholesterol Diff. D o − D 12 / Total cholesterol Diff. D o − D 12 / Triglycerides Diff. D o − D 12: change day 0 to day 12; for Glucose D o / HDL-cholesterol D o / Total cholesterol D o / Triglycerides D o: day 0; for Glucose D 12 / HDL-cholesterol D 12 / Total cholesterol D 12 / Triglycerides D 12: day 12; for Glucose D-4 / HDL-cholesterol D-4 / Total cholesterol D-4 / Triglycerides D-4: day −4
Experimental: The following compounds are investigated and compared to placebo (vehicle control).
The mentioned 3 compounds are tested in db/db mice during a time when diabetes is in a rapid developing stage. […] Each dosage group and the vehicle group comprise 7 mice. The suspensions used are prepared with peroxide free arachis oil as vehicle. Blood samples are collected by retro-orbital bleeding at days −4, 0 and 12. The blood levels of glucose, triglycerides, total cholesterol, and HDL-cholesterol are determined.
For evaluation of efficacy, the difference between the values of glucose, triglycerides, total cholesterol and HDL-cholesterol changing from day 0 to day 12 is determined and expressed in %. […] Overall evaluation consists in determining the efficacy of the compounds by calculating the whole extent of the effect expressed in %. […] This value is considered as a valuable indicator for the efficacy of the investigated compounds administered in a tolerated dose.

[1] = 30 mg/kg/day group versus vehicle group

SMILES: CC1=C(/C=C/C(C)=C\C=C\C(C)=C\C(=O)O)C(C)(C)CCC1 [9-cis RA, 9-cis retinoic acid, reference compound]
- Effect on cartilage destruction in vitro (in words) (synovial fibroblasts; absence of IL-1β): increases cartilage destruction in vitro in a dose-dependent manner
- sGAG release (synovial fibroblasts; absence of IL-1β, 10^−7 M): 189 µg/mL
- sGAG release (synovial fibroblasts; absence of IL-1β, 10^−8 M): 107 µg/mL
- Cumulative sGAG (synovial fibroblasts; absence of IL-1β, 10^−8 M, day 7): 44 µg/mL
- Cumulative sGAG (synovial fibroblasts; absence of IL-1β, 10^−8 M, day 14): 107 µg/mL
- Cumulative sGAG (synovial fibroblasts; absence of IL-1β, 10^−8 M, day 21): 206 µg/mL
- Cumulative sGAG (synovial fibroblasts; absence of IL-1β, 10^−8 M, day 28): 253 µg/mL
- Cumulative sGAG (synovial fibroblasts; absence of IL-1β, 10^−8 M, day 35): 292 µg/mL
- sGAG release (synovial fibroblasts; absence of IL-1β, 10^−9 M): 64 µg/mL
- sGAG release (synovial fibroblasts; presence of 100 pg/ml IL-1β, 10^−7 M): 221 µg/mL
- sGAG release (synovial fibroblasts; presence of 100 pg/ml IL-1β, 10^−8 M): 189 µg/mL
- Cumulative sGAG (synovial fibroblasts; presence of 100 pg/ml IL-1β, 10^−8 M, day 7): 68 µg/mL
- Cumulative sGAG (synovial fibroblasts; presence of 100 pg/ml IL-1β, 10^−8 M, day 14): 189 µg/mL
- Cumulative sGAG (synovial fibroblasts; presence of 100 pg/ml IL-1β, 10^−8 M, day 21): 330 µg/mL
- Cumulative sGAG (synovial fibroblasts; presence of 100 pg/ml IL-1β, 10^−8 M, day 28): 407 µg/mL
- Cumulative sGAG (synovial fibroblasts; presence of 100 pg/ml IL-1β, 10^−8 M, day 35): 441 µg/mL
- sGAG release (synovial fibroblasts; presence of 100 pg/ml IL-1β, 10^−9 M): 204 µg/mL
- MMP-1 mRNA, fold increase of baseline value (MMP-1 mRNA; 10^−7 M, after 24 hours): 2.60 relative units
- MMP-1 mRNA, fold increase of baseline value (MMP-1 mRNA; 10^−8 M, 0 hours): 1 relative units
- MMP-1 mRNA, fold increase of baseline value (MMP-1 mRNA; 10^−8 M, 2 hours): 0.98 relative units
- MMP-1 mRNA, fold increase of baseline value (MMP-1 mRNA; 10^−8 M, 6 hours): 1.31 relative units
- MMP-1 mRNA, fold increase of baseline value (MMP-1 mRNA; 10^−8 M, 12 hours): 3.39 relative units
- MMP-1 mRNA, fold increase of baseline value (MMP-1 mRNA; 10^−8 M, 24 hours): 3.79 relative units
- MMP-1 mRNA, fold increase of baseline value (MMP-1 mRNA; 10^−8 M, 48 hours): 1.47 relative units
- MMP-1 mRNA, fold increase of baseline value (MMP-1 mRNA; 10^−8 M, after 24 hours): 3.39 relative units
- MMP-1 mRNA, fold increase of baseline value (MMP-1 mRNA; 10^−9 M, after 24 hours): 1.54 relative units

SMILES: CC1=C(/C=C/C2=C(/C=C/C(C)=C/C(=O)O)CCCCC2)C(C)(C)CCC1 [Compound 1, (2E,4E)-3-methyl-5-[2-[(E)-2-(2,6,6-trimethyl-1-cyclohexen-1-yl)ethenyl]-1-cyclohepten-1-yl]-2,4-pentadienoic acid]
- Glucose Diff. D o − D 12 (db/db mice; 0.3 mg/kg/day i.p.): +57.5%
- HDL-cholesterol Diff. D o − D 12 (db/db mice; 0.3 mg/kg/day i.p.): −3.2%
- Total cholesterol Diff. D o − D 12 (db/db mice; 0.3 mg/kg/day i.p.): −14.1%
- Triglycerides Diff. D o − D 12 (db/db mice; 0.3 mg/kg/day i.p.): +25.4%
- Glucose D o (db/db mice; 0.3 mg/kg/day i.p.): 207 mg/dL
- HDL-cholesterol D o (db/db mice; 0.3 mg/kg/day i.p.): 3.78 mmol/L
- Total cholesterol D o (db/db mice; 0.3 mg/kg/day i.p.): 4.27 mmol/L
- Triglycerides D o (db/db mice; 0.3 mg/kg/day i.p.): 1.73 mmol/L
- Glucose D 12 (db/db mice; 0.3 mg/kg/day i.p.): 326 mg/dL
- HDL-cholesterol D 12 (db/db mice; 0.3 mg/kg/day i.p.): 2.69 mmol/L
- Total cholesterol D 12 (db/db mice; 0.3 mg/kg/day i.p.): 3.67 mmol/L
- Triglycerides D 12 (db/db mice; 0.3 mg/kg/day i.p.): 2.17 mmol/L
- Glucose D-4 (db/db mice; 0.3 mg/kg/day i.p.): 138 mg/dL
- HDL-cholesterol D-4 (db/db mice; 0.3 mg/kg/day i.p.): 2.65 mmol/L
- Total cholesterol D-4 (db/db mice; 0.3 mg/kg/day i.p.): 4.26 mmol/L
- Triglycerides D-4 (db/db mice; 0.3 mg/kg/day i.p.): 1.83 mmol/L
- Glucose levels (in words) (db/db mice; 3 mg/kg/day): no significant change
- HDL-cholesterol levels (in words) (db/db mice; 3 mg/kg/day): not influenced
- Triglyceride levels (in words) (db/db mice; 3 mg/kg/day): hardly influenced
- Glucose Diff. D o − D 12 (db/db mice; 3.0 mg/kg/day i.p.): +40.7%
- HDL-cholesterol Diff. D o − D 12 (db/db mice; 3.0 mg/kg/day i.p.): −19.6%
- Total cholesterol Diff. D o − D 12 (db/db mice; 3.0 mg/kg/day i.p.): −19.9%
- Triglycerides Diff. D o − D 12 (db/db mice; 3.0 mg/kg/day i.p.): +15.3%
- Glucose D o (db/db mice; 3.0 mg/kg/day i.p.): 194 mg/dL
- HDL-cholesterol D o (db/db mice; 3.0 mg/kg/day i.p.): 3.37 mmol/L
- Total cholesterol D o (db/db mice; 3.0 mg/kg/day i.p.): 4.68 mmol/L
- Triglycerides D o (db/db mice; 3.0 mg/kg/day i.p.): 1.83 mmol/L
- Glucose D 12 (db/db mice; 3.0 mg/kg/day i.p.): 273 mg/dL
- HDL-cholesterol D 12 (db/db mice; 3.0 mg/kg/day i.p.): 2.71 mmol/L
- Total cholesterol D 12 (db/db mice; 3.0 mg/kg/day i.p.): 3.75 mmol/L
- Triglycerides D 12 (db/db mice; 3.0 mg/kg/day i.p.): 2.11 mmol/L
- Glucose D-4 (db/db mice; 3.0 mg/kg/day i.p.): 155 mg/dL
- HDL-cholesterol D-4 (db/db mice; 3.0 mg/kg/day i.p.): 2.53 mmol/L
- Total cholesterol D-4 (db/db mice; 3.0 mg/kg/day i.p.): 4.25 mmol/L
- Triglycerides D-4 (db/db mice; 3.0 mg/kg/day i.p.): 1.85 mmol/L
- Glucose levels (in words) (db/db mice; 30 mg/kg/day): decrease markedly
- HDL-cholesterol levels (in words) (db/db mice; 30 mg/kg/day): markedly increased
- Total cholesterol levels (in words) (db/db mice; 30 mg/kg/day): slightly higher
- Triglyceride levels (in words) (db/db mice; 30 mg/kg/day): decreasing significantly
- Overall extent of the effect on blood levels of Glucose (db/db mice; [1]): −62.5%
- Overall extent of the effect on blood levels of HDL-cholesterol (db/db mice; [1]): +18.4%
- Overall extent of the effect on blood levels of Total cholesterol (db/db mice; [1]): −16.6%
- Overall extent of the effect on blood levels of Triglycerides (db/db mice; [1]): −21.5%
- Glucose Diff. D o − D 12 (db/db mice; 30 mg/kg/day i.p.): −12.3%
- HDL-cholesterol Diff. D o − D 12 (db/db mice; 30 mg/kg/day i.p.): +14.6%
- Total cholesterol Diff. D o − D 12 (db/db mice; 30 mg/kg/day i.p.): +7.8%
- Triglycerides Diff. D o − D 12 (db/db mice; 30 mg/kg/day i.p.): +0.6%
- Glucose D o (db/db mice; 30 mg/kg/day i.p.): 335 mg/dL
- HDL-cholesterol D o (db/db mice; 30 mg/kg/day i.p.): 2.94 mmol/L
- Total cholesterol D o (db/db mice; 30 mg/kg/day i.p.): 4.21 mmol/L
- Triglycerides D o (db/db mice; 30 mg/kg/day i.p.): 1.7 mmol/L
- Glucose D 12 (db/db mice; 30 mg/kg/day i.p.): 206 mg/dL
- HDL-cholesterol D 12 (db/db mice; 30 mg/kg/day i.p.): 3.37 mmol/L
- Total cholesterol D 12 (db/db mice; 30 mg/kg/day i.p.): 4.54 mmol/L
- Triglycerides D 12 (db/db mice; 30 mg/kg/day i.p.): 1.71 mmol/L
- Glucose D-4 (db/db mice; 30 mg/kg/day i.p.): 174 mg/dL
- HDL-cholesterol D-4 (db/db mice; 30 mg/kg/day i.p.): 2.46 mmol/L
- Total cholesterol D-4 (db/db mice; 30 mg/kg/day i.p.): 4.37 mmol/L
- Triglycerides D-4 (db/db mice; 30 mg/kg/day i.p.): 2.13 mmol/L
